The values below come from patent US20180250306A1, “ALDEHYDE CONJUGATES AND USES THEREOF” (ALDEYRA THERAPEUTICS, INC., priority 2015, published 2018).

Assay [1] can be described thus: Aldehyde adduct formation over time (product HPLC peak). To be noted: for Formation of Product, ranking, 7 Hours / Formation of Product, ranking, 23 Hours: rank from most effective (1) to least. As for the experimental part:
It is not possible to conclude if this is the result of poor dissociation (from cyclodextrin) or poor interaction with the aldehyde. Best fit lines over this period give excellent fit to data. […] It can be used to relatively rank each of the samples examined, including NS2. The data were first evaluated over a 7 h time window.

The nature of assay [2]: Consumption of 4HNE over time (HPLC, 254 nm). To be noted: for Consumption of 4HNE, ranking, 7 Hours / Consumption of 4HNE, ranking, 23 Hours: rank from most effective (1) to least; for Consumption of 4HNE, ranking, 23 Hours: ranks 1-4 essentially identical; for decrease in HNE relative to corresponding increase in adduct: 1 week time period. An excerpt:
5 of 6 samples show consumption of 4HNE. One sample (2-(3-aminoquinolin-2-yl)propan-2-ol) overlaps 4HNE HPLC peak using current method. Best fit lines over this period give poorer fit to data than product formation data. Rate of 4HNE consumption can be used as an approximation of binding kinetics. […] The data were used to rank relatively each of the samples examined, including NS-2 but excluding 2-(3-aminoquinolin-2-yl)propan-2-ol.

With `CC(C)(O)c1nc2cccc(Cl)c2cc1N` [2-(3-amino-5-chloroquinolin-2yl)propan-2-ol], the “Gradient of product HPLC peak increase (rate of adduct formation)” value (“Gradient of product HPLC peak increase” below) in assay [1] (7 h time window) is reported as “(Gradient 0.86,”. For the same compound, in assay [1] (23 h time window), the “Gradient of product HPLC peak increase” value is reported as “(Gradient 0.44,”. Further, in assay [1], the “Formation of Product, ranking, 7 Hours” value was 6 and the “Formation of Product, ranking, 23 Hours” value is listed as 6. In addition, the “Gradient of 4HNE consumption” value in assay [2] (23 h) was “(Gradient −0.04,”. The “Gradient of 4HNE consumption” value in assay [2] (first 7 h, analysis at 254 nm) is recorded as “(Gradient −0.05,”. Besides, in assay [2], the “Consumption of 4HNE, ranking, 7 Hours” value came to 3 and the “Consumption of 4HNE, ranking, 23 Hours” value worked out at 2.

For `CC(C)(O)c1nc2ccc(Br)cc2cc1N` [2-(3-amino-6-bromoquinolin-2-yl)propan-2-ol], in assay [1] (7 h time window), the “Gradient of product HPLC peak increase” value is on record as “(Gradient 1.63,”. Moreover, the “Gradient of product HPLC peak increase” value in assay [1] (23 h time window) is recorded as “(Gradient 1.16,”. In assay [1], the “Formation of Product, ranking, 7 Hours” value came out at 4 and the “Formation of Product, ranking, 23 Hours” value is given as 4. Also, in assay [2] (23 h), the “Gradient of 4HNE consumption” value was “(Gradient −0.04,”. In addition, the “Gradient of 4HNE consumption” value in assay [2] (first 7 h, analysis at 254 nm) is listed as “(Gradient −0.04,”. Moreover, in assay [2], the “Consumption of 4HNE, ranking, 7 Hours” value stood at 4 and the “Consumption of 4HNE, ranking, 23 Hours” value worked out at 4.

Regarding `CC(C)(O)c1nc2cc(Cl)ccc2cc1N` [2-(3-amino-7-chloroquinolin-2-yl)propan-2-ol], in assay [1] (7 h time window), the “Gradient of product HPLC peak increase” value is “(Gradient 2.02,”. In assay [1] (23 h time window), the “Gradient of product HPLC peak increase” value is “(Gradient 1.21,”. Also, in assay [1], the “Formation of Product, ranking, 7 Hours” value is 3 and the “Formation of Product, ranking, 23 Hours” value was found to be 3. Moreover, in assay [2], the “decrease in HNE relative to corresponding increase in adduct” value is given as “greater”; the “Consumption of 4HNE, ranking, 7 Hours” value is 2; the “Consumption of 4HNE, ranking, 23 Hours” value turned out to be 1. For the same compound, the “Gradient of 4HNE consumption” value in assay [2] (23 h) is reported as “(Gradient −0.05,”. Also, the “Gradient of 4HNE consumption” value in assay [2] (first 7 h, analysis at 254 nm) is listed as “(Gradient −0.06,”.

In the case of `CC(C)(O)c1nc2c(Cl)cccc2cc1N` [2-(3-amino-8-chloroquinolin-2-yl)propan-2-ol], in assay [1] (7 h time window), the “Gradient of product HPLC peak increase” value is recorded as “(Gradient 1.18,”. The “Gradient of product HPLC peak increase” value in assay [1] (23 h time window) is recorded as “(Gradient 0.81,”. Further, in assay [1], the “Formation of Product, ranking, 7 Hours” value was 5 and the “Formation of Product, ranking, 23 Hours” value stood at 5. Also, in assay [2], the “decrease in HNE relative to corresponding increase in adduct” value is given as “greater”; the “Consumption of 4HNE, ranking, 7 Hours” value is on record as 5; the “Consumption of 4HNE, ranking, 23 Hours” value was 5. The “Gradient of 4HNE consumption” value in assay [2] (23 h) is given as “(Gradient −0.02,”. Besides, in assay [2] (first 7 h, analysis at 254 nm), the “Gradient of 4HNE consumption” value is given as “(Gradient −0.01,”.

For the compound `CC(C)(O)c1nc2ccccc2cc1N` [2-(3-aminoquinolin-2-yl)propan-2-ol], the “Gradient of product HPLC peak increase” value in assay [1] (7 h time window) was “(Gradient 3.68,”. Moreover, in assay [1] (23 h time window), the “Gradient of product HPLC peak increase” value was “(Gradient 1.99,”. For the same compound, in assay [1], the “Formation of Product, ranking, 7 Hours” value is 1 and the “Formation of Product, ranking, 23 Hours” value turned out to be 1.
